Our source for the Specificity values is ChEMBL document CHEMBL1124305, “Synthesis and immunological evaluation of N-terminal, noncrossreactive tachykinin antigens” (J Med Chem, 1988).

Calls of active or inactive are those of the source. The rule behind the calls is not given here.

What all share (assay type): functional, organism-based
The species named for assay [1] is Mus musculus. The assay is described as follows: Determination of serum specificity with immunogen 1-MBSA in ELISA against the respective tachykinins of mice; - indicates Nondetectable interaction.
The species entered for assay [2] is Mus musculus. Description: Determination of serum specificity with immunogen 2-MBSA in ELISA against the respective tachykinins of mice; +++ indicates Strong recognition.
The species named for assay [3] is Mus musculus. Description: Determination of serum specificity with immunogen 3-MBSA in ELISA against the respective tachykinins of mice; - indicates Nondetectable interaction.

Turning to `CSCC[C@H](NC(=O)[C@H](CC(C)C)NC(=O)CNC(=O)[C@@H](NC(=O)[C@H](Cc1ccccc1)NC(=O)[C@H](CO)NC(=O)[C@H](CC(=O)O)NC(=O)[C@@H](NC(=O)[C@H](CCCCN)NC(=O)[C@@H](N)Cc1c[nH]cn1)[C@@H](C)O)C(C)C)C(N)=O`, the Specificity entry in the assay listed under Mus musculus [1] and in the assay filed under Mus musculus [3] was “inactive” in each case. For the same compound, the Specificity result in the assay filed under Mus musculus [2] is “Active”.
